Measurements: patent US6838414B2, “Substituted aryl sulphonyl(thio)ureas used as herbicides” (Bayer Aktiengesellschaft, priority 1996, dated 2005)

Key:
weeds [1] = experiment: Pre-emergence test (overall statement); format: in vivo; conditions: application rates between 30 g and 125 g of a.i. per hectare
Experimental: (§1) To produce a suitable preparation of active compound, 1 part by weight of active compound is mixed with the stated amount of solvent, the stated amount of emulsifier is added and the concentrate is diluted with water to the desired concentration.
(§2) Seeds of the test plants are sown in normal soil. After about 24 hours, the soil is sprayed with the preparation of the active compound. Advantageously, the amount of water per unit area is kept constant. The active compound concentration in the preparation is not important, only the active compound application rate per unit area is critical.
(§3) After three weeks, the degree of damage to the plants is rated in % damage in comparison with the development of the untreated control.
(§4) The figures denote: • 0%=no effect (like untreated control) • 100%=total destruction

Lolium = experiment: Pre-emergence test/greenhouse; format: in vivo; conditions: after three weeks
Experimental: as §1, §2, §3, §4

Stellaria = experiment: Pre-emergence test/greenhouse; format: in vivo; conditions: after three weeks
Experimental: as §1, §2, §3, §4

Amaranthus = experiment: Pre-emergence test/greenhouse; format: in vivo; conditions: after three weeks
Experimental: as §1, §2, §3, §4

Alopecurus [2] = experiment: Pre-emergence test/greenhouse; format: in vivo; conditions: after three weeks
Experimental: as §1, §2, §3, §4

Chenopodium = experiment: Pre-emergence test/greenhouse; format: in vivo; conditions: after three weeks
Experimental: as §1, §2, §3, §4

Sorghum = experiment: Pre-emergence test/greenhouse; format: in vivo; conditions: after three weeks
Experimental: as §1, §2, §3, §4

Echinochloa = experiment: Post-emergence test/greenhouse; format: in vivo; conditions: rated after three weeks vs untreated control
Experimental: as §1
(§5) Test plants which have a height of 5-15 cm are sprayed with the preparation of the active compound in such a way as to apply the particular amounts of active compound desired per unit area. The concentration of the spray liquor is chosen so that the amounts of active compound desired in each case are applied in 1000 l of water/ha.
as §3, §4

Abutilon = experiment: Post-emergence test/greenhouse; format: in vivo; conditions: rated after three weeks vs untreated control
Experimental: as §1, §5, §3, §4

Matricaria = experiment: Post-emergence test/greenhouse; format: in vivo; conditions: rated after three weeks vs untreated control
Experimental: as §1, §5, §3, §4

weeds [3] = experiment: Post-emergence test/greenhouse; format: in vivo
Experimental: as §1, §5, §3, §4

Alopecurus [4] = experiment: Post-emergence test/greenhouse; format: in vivo; conditions: rated after three weeks vs untreated control
Experimental: as §1, §5, §3, §4

[5] = application rate 60 g of ai./ha
[6] = application rate 30 g of ai./ha

| SMILES | activity against weeds (weeds [1]) | melting point [°C] | Lolium, % damage (Lolium; 60 g of ai./ha) [%] | Steltaria, % damage (Stellaria; 60 g of ai./ha) [%] | Amaranthus, % damage (Amaranthus; 60 g of ai./ha) [%] | Alopecurus, % damage (Alopecurus [2]; 60 g of ai./ha) [%] | Chenopodium, % damage (Chenopodium; 60 g of ai./ha) [%] | Sorghum, % damage (Sorghum; 60 g of ai./ha) [%] | degree of damage to the plants, Echinochloa (Echinochloa; [5]) [%] | degree of damage to the plants, Abutilon (Abutilon; [5]) [%] | degree of damage to the plants, Matricaria (Matricaria; [5]) [%] | activity against weeds (weeds [3]) | degree of damage to the plants, Alopecurus (Alopecurus [4]; [5]) [%] | degree of damage to the plants, Echinochloa (Echinochloa; [6]) [%] | degree of damage to the plants, Abutilon (Abutilon; [6]) [%] | degree of damage to the plants, Matricaria (Matricaria; [6]) [%] | degree of damage to the plants, Alopecurus (Alopecurus [4]; [6]) [%] | Lolium, % damage (Lolium; 30 g of ai./ha) [%] | Steltaria, % damage (Stellaria; 30 g of ai./ha) [%] | Amaranthus, % damage (Amaranthus; 30 g of ai./ha) [%] | further results |
| --- | --- | --- | --- | --- | --- | --- | --- | --- | --- | --- | --- | --- | --- | --- | --- | --- | --- | --- | --- | --- | --- |
| COc1cccc(C(F)(F)F)c1S(=O)(=O)NC(=O)Nc1nc(C)cc(C)n1 [Example 1, N-(4,6-dimethyl-pyrimidin-2-yl)-N′-(2-methoxy-6-trifluoromethyl-phenylsulphonyl)-urea] | very strong activity against weeds | 190 | 100 | 100 | 100 | 100 | 100 | 100 | – | – | – | – | – | – | – | – | – | – | – | – | – |
| CCOc1cccc(C)c1S(=O)(=O)NC(=O)Nc1nc(OC)cc(OC)n1 [Example 3, N-(4,6-dimethoxy-pyrimidin-2-yl)-N′-(2-ethoxy-6-methyl-phenylsulphonyl)-urea] | very strong activity against weeds | 184 | 60 | 95 | 80 | 95 | 95 | 80 | 80 | 100 | 95 | very strong activity against weeds | 90 | – | – | – | – | – | – | – | – |
| COc1nc(NC(=O)NS(=O)(=O)c2c(C)cccc2OC)nc(OC)n1 [Example 2, N-(4,6-dimethoxy-1,3,5-triazin-2-yl)-N′-(2-methoxy-6-methyl-phenylsulphonyl)-urea] | very strong activity against weeds | 163 | – | – | – | – | – | – | – | – | – | very strong activity against weeds | – | 90 | 95 | 100 | 90 | 100 | 100 | 100 | Alopecurus, % damage (Alopecurus [2]; 30 g of ai./ha): 100%; Chenopodium, % damage (Chenopodium; 30 g of ai./ha): 100%; Sorghum, % damage (Sorghum; 30 g of ai./ha): 100% |
| COc1nc(NC(=O)NS(=O)(=O)c2c(C)cccc2OC(C)C)nc(OC)n1 [Example 39] | very strong activity against weeds | – | – | – | – | – | – | – | – | – | – | very strong activity against weeds | – | 95 | 100 | 100 | 90 | 100 | 100 | 100 | Alopecurus, % damage (Alopecurus [2]; 30 g of ai./ha): 100%; Chenopodium, % damage (Chenopodium; 30 g of ai./ha): 100%; Sorghum, % damage (Sorghum; 30 g of ai./ha): 100% |
| CCCOc1cccc(C)c1S(=O)(=O)NC(=O)Nc1nc(OC)nc(OC)n1 [Example 48] | very strong activity against weeds | – | 100 | 100 | 100 | 100 | 100 | 100 | 70 | 100 | 90 | very strong activity against weeds | 95 | – | – | – | – | – | – | – | – |
| COc1cc(Cl)nc(NC(=O)NS(=O)(=O)c2c(OC)cccc2C(F)(F)F)n1 [Example 15] | very strong activity against weeds | – | 95 | 95 | 95 | 100 | 100 | 95 | 90 | 95 | 100 | very strong activity against weeds | 70 | – | – | – | – | – | – | – | – |
